Consider 1 compound from patent US7384983B2, “Inhibitor of monoamine uptake” (Eli Lilly and Company, priority 2001, dated 2008).

What is called Ki is the equilibrium dissociation constant of an inhibitor or competing ligand from its target. Read a high Ki as weaker binding.

Structures are written as SMILES.

The target of one test is uptake of serotonin. The test can be described thus: Microdialysis Assays of Monoamines: inhibition of serotonin uptake. To be noted: tested essentially as described for microdialysis assays. Here is the method:
(§1) Microdialysis Assays of Monoamines
(§2) Sprague-Dawley rats (Harlan or Charles River) weighing 270-300 grams are surgically implanted with microdialysis probes under chloral hydrate/pentobarbital anesthesia (170 and 36 mg/kg i.p. in 30% propylene glycol, 14% ethanol) as described by Perry and Fuller. (Perry and Fuller, Effect of fluoxetine on serotonin and dopamine concentration in rat hypothalamus after administration of fluoxetine plus L-5-hydroxytryptophan, Life Sci., 50, 1683-90 (1992)). A David Kopf stereotaxic instrument is used to implant the probe unilaterally in the hypothalamus at coordinates rostral −1.5 mm, lateral −1.3 mm, and ventral −9.0 mm (Paxinos and Watson, 1986). After a 48-hour recovery period, rats are placed in a large plastic bowl with a mounted liquid swivel system (CMA/120 system for freely moving animals, Bioanalytical Systems, West Lafayette, Ind.). Filtered artificial cerebrospinal fluid (CSF) (150 mM NaCl, 3.0 MM KCl, 1.7 mM CaCl2, and 0.9 mM MgCl2) is perfused through the probe at a rate of […]. […]
(§3) The method used to measure monoamines is as described by Perry and Fuller (1992). […] The electrochemical detector (EG&G, Model 400) for the amine column is set at a potential of 400 mV and a sensitivity of 0.2 nA/V. Basal levels are measured for at least 90 minutes prior to drug administration. […]

The target of the next test is uptake of norepinephrine. The test can be described thus: Microdialysis Assays of Monoamines: inhibition of norepinephrine uptake. In kind it is in vivo, Sprague-Dawley rats. To be noted: tested essentially as described for microdialysis assays. Here is the method:
as §1, §2, §3

`CNCC[C@@H](Oc1ccc(O)cc1C)c1ccccc1` [R-(−)-N-methyl 3-((2-methyl-4-hydroxyphenyl)oxy)-3-phenyl-1-aminopropane]: the figures for the Ki on uptake of serotonin and at uptake of norepinephrine were 43 nM and 3 nM, respectively.
